According to article PMC4685510, “A Cell Biologist’s Field Guide to Aurora Kinase Inhibitors” (Frontiers in Oncology, 2015):

How the values were obtained:
Experiment in all cases: biochemical
Type in all cases: biochemical
[1] = biological target: 363 human kinases (including Aurora A/B/C) (Homo sapiens, UniProt P08922); conditions: ROS/ROS1; for remaining activity at 0.1 µM: 100 nM; for remaining activity at 0.1 µM / remaining activity at 0.5 µM: read-out: % Enzyme Activity (relative to DMSO controls)
363 human kinases (including Aurora A/B/C) (Homo sapiens, UniProt P08922), sequence (P08922 28-2347): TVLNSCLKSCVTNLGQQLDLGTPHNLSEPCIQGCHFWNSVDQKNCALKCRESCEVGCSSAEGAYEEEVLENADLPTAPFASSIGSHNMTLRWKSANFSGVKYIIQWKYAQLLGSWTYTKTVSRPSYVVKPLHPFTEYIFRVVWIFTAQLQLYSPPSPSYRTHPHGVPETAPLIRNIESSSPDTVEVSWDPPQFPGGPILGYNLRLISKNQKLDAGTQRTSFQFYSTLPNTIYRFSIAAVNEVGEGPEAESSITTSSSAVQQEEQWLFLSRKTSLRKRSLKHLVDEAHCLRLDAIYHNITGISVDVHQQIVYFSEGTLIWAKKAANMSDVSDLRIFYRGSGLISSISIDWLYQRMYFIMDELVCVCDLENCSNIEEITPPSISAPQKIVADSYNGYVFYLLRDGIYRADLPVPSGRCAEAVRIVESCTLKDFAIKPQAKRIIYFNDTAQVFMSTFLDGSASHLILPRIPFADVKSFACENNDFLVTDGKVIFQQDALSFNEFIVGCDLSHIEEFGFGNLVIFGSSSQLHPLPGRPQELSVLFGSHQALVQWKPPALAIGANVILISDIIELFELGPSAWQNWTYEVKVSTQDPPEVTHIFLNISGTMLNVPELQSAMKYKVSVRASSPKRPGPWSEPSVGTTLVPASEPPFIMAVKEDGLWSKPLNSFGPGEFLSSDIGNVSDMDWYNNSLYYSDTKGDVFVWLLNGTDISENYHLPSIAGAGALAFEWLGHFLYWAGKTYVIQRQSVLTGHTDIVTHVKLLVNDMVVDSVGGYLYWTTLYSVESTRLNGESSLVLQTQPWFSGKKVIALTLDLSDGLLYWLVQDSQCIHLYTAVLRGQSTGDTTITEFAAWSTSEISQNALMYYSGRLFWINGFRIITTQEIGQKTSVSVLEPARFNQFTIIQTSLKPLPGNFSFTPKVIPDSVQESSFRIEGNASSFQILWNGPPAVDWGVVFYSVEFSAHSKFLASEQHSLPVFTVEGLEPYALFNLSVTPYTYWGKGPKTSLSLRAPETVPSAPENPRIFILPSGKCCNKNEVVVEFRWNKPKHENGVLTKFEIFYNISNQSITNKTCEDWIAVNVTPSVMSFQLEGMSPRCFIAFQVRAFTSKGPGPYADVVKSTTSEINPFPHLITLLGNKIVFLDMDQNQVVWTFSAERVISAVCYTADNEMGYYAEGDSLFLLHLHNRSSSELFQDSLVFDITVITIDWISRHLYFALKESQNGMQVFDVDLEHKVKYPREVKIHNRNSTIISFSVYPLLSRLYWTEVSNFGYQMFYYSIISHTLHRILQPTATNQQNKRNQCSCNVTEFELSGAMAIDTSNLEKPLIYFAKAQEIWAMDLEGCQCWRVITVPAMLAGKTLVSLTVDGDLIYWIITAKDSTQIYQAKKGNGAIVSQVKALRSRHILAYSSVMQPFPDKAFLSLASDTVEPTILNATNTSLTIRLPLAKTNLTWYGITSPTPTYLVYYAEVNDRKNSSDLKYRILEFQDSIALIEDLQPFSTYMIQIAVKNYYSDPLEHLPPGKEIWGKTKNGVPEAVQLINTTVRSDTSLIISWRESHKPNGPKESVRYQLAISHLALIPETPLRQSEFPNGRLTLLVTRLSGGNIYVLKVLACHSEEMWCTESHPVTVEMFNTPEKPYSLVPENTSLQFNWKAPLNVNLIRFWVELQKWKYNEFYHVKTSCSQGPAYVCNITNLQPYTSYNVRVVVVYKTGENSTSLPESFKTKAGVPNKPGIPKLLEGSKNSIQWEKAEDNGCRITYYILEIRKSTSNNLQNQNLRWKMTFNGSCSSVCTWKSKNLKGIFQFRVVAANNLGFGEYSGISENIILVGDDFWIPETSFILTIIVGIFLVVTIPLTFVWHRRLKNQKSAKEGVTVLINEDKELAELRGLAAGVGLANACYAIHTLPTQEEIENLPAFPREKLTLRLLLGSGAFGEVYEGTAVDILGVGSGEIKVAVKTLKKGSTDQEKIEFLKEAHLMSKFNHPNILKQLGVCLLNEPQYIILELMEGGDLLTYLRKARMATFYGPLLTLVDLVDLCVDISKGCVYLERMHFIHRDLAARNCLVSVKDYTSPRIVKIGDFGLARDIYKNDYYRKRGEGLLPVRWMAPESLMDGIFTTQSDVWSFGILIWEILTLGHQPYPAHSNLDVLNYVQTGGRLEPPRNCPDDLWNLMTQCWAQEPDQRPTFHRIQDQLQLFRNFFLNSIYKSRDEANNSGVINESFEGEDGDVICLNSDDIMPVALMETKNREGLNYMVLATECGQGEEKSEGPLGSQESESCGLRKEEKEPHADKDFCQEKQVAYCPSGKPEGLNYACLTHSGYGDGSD
From the text: (§1) However, the Aurora A/B selectivity ratios derived from our in vitro and in vivo data can be compared to prioritize inhibitors.

[2] = biological target: 363 human kinases (including Aurora A/B/C) (Homo sapiens, UniProt P05129); conditions: PKCg; for remaining activity at 0.1 µM: 100 nM; for remaining activity at 0.1 µM / remaining activity at 0.5 µM: read-out: % Enzyme Activity (relative to DMSO controls)
From the text: as §1

[3] = biological target: T1, 363 human kinases (including Aurora A/B/C) (Homo sapiens, UniProt O60285); conditions: ARK5/NUAK1, [ATP] 30 µM; for remaining activity at 0.1 µM: 100 nM; for remaining activity at 0.1 µM / remaining activity at 0.5 µM: read-out: % Enzyme Activity (relative to DMSO controls)
T1 sequence (O60285 1-661): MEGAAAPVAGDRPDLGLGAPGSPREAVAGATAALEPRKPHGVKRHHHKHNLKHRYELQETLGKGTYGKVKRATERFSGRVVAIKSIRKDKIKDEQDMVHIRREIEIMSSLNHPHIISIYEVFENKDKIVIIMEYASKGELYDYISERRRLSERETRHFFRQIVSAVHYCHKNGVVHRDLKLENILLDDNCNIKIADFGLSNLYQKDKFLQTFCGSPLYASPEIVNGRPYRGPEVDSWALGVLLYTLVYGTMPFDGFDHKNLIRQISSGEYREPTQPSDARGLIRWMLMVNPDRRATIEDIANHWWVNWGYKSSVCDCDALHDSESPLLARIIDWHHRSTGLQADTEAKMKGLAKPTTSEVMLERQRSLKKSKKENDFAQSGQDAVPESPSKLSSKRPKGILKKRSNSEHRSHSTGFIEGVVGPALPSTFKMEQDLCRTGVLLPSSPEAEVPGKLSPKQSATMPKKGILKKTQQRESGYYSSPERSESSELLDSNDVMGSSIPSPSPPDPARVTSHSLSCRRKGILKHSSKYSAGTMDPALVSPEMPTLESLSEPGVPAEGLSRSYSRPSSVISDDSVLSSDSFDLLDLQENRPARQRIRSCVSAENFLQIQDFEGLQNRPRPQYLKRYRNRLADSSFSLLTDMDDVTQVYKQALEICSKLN
From the text: as §1

[4] = biological target: 363 human kinases (including Aurora A/B/C) (Homo sapiens, UniProt Q52WX2); conditions: SBK1; for remaining activity at 0.1 µM: 100 nM; for remaining activity at 0.1 µM / remaining activity at 0.5 µM: read-out: % Enzyme Activity (relative to DMSO controls)
363 human kinases (including Aurora A/B/C) (Homo sapiens, UniProt Q52WX2), sequence (Q52WX2 whole entry): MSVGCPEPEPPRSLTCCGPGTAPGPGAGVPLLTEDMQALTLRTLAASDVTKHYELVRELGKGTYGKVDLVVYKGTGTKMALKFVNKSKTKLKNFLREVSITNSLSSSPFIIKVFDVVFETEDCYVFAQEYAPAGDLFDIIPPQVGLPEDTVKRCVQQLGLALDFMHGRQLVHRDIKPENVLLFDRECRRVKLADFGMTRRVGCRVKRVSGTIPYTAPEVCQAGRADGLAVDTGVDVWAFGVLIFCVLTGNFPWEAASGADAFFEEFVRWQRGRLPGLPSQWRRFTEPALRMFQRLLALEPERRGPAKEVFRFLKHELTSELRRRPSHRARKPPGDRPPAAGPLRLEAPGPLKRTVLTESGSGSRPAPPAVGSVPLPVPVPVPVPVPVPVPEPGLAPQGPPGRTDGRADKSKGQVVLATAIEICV
From the text: as §1

[5] = biological target: T2, 363 human kinases (including Aurora A/B/C) (Homo sapiens, UniProt Q16566); conditions: CAMK4, [ATP] 10 µM; for remaining activity at 0.1 µM: 100 nM; for remaining activity at 0.1 µM / remaining activity at 0.5 µM: read-out: % Enzyme Activity (relative to DMSO controls)
T2 sequence (Q16566 1-473): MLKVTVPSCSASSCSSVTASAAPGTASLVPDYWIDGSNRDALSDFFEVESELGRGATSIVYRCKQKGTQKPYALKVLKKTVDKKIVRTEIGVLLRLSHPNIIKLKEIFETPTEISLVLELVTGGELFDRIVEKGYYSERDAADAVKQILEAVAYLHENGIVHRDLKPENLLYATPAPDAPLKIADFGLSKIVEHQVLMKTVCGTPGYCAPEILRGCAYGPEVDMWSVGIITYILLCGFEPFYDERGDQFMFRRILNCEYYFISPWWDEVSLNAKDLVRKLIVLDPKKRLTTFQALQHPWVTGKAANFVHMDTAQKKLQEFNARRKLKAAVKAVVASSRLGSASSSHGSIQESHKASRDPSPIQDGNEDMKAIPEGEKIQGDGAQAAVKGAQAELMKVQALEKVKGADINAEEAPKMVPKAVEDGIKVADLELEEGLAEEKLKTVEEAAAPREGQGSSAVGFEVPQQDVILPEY
From the text: as §1

[6] = biological target: T3, 363 human kinases (including Aurora A/B/C) (Homo sapiens, UniProt Q96BR1); conditions: SGK3/SGKL; for remaining activity at 0.1 µM: 100 nM; for remaining activity at 0.1 µM / remaining activity at 0.5 µM: read-out: % Enzyme Activity (relative to DMSO controls)
T3 sequence (Q96BR1 1-496): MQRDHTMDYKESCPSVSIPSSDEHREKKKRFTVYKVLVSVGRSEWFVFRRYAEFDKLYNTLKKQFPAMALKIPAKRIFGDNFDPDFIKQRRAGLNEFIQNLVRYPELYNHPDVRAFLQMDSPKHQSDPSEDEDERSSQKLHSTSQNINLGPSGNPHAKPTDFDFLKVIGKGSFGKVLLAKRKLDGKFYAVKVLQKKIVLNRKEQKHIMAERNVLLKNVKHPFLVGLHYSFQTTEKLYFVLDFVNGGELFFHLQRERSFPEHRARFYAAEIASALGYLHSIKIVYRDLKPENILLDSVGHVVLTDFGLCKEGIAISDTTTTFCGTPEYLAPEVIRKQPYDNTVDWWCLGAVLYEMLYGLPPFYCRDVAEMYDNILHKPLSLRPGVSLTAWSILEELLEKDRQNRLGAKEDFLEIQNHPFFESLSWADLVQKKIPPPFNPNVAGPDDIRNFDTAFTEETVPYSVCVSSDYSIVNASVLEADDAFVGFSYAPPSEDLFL
From the text: as §1

| SMILES | remaining activity at 0.1 µM [1] [%] | remaining activity at 0.1 µM [2] [%] | remaining activity at 0.1 µM [3] [%] | remaining activity at 0.1 µM [4] [%] | remaining activity at 0.1 µM [5] [%] | remaining activity at 0.1 µM [6] [%] | % Enzyme Activity (relative to DMSO controls) ([1]; 500 nM) [%] | remaining activity at 0.5 µM ([1]; 500 nM) [%] | % Enzyme Activity (relative to DMSO controls) ([2]; 500 nM) [%] | remaining activity at 0.5 µM ([2]; 500 nM) [%] | % Enzyme Activity (relative to DMSO controls) ([3]; 500 nM) [%] | remaining activity at 0.5 µM ([3]; 500 nM) [%] | % Enzyme Activity (relative to DMSO controls) ([4]; 500 nM) [%] | remaining activity at 0.5 µM ([4]; 500 nM) [%] | % Enzyme Activity (relative to DMSO controls) ([5]; 500 nM) [%] | remaining activity at 0.5 µM ([5]; 500 nM) [%] | % Enzyme Activity (relative to DMSO controls) ([6]; 500 nM) [%] | remaining activity at 0.5 µM ([6]; 500 nM) [%] |
| --- | --- | --- | --- | --- | --- | --- | --- | --- | --- | --- | --- | --- | --- | --- | --- | --- | --- | --- |
| CCn1cc(-c2ccnc3[nH]c(-c4cccc(CN(C)C)c4)cc23)c(-c2ccc(NC(=O)N(C)C)cc2)n1 [GSK1070916] | 102 | 82.3 | 92.5 | 101 | 98.5 | 105 | – | – | – | – | – | – | – | – | – | – | – | – |
| O=C(c1cccc(Cl)c1F)N1CCN(Cc2cccc(Nc3nccs3)n2)CC1 [MK-8745] | – | – | – | – | – | – | 3.19 | 3.49 | 90.37 | 91.9 | 73.30 | 76.7 | 95.86 | 96.4 | 101.38 | 102 | 98.27 | 99.7 |
| O=C(O)[C@]1(Cc2cccc(Nc3nccs3)n2)CC[C@@H](Oc2cccc(Cl)c2F)CC1 [MK-5108] | 0.98 | 93.7 | 79.6 | 102 | 93.4 | 106 | – | 1.15 | – | 63 | – | 42.7 | – | 96.3 | – | 99.8 | – | 105 |
